{"source": "paper PMC6792352", "about": "“Limited Chemical Structural Diversity Found to Modulate Thyroid Hormone Receptor in the Tox21 Chemical Library” (Environmental Health Perspectives, 2019)", "experiment": "in vitro", "details": "rat, gh3-tre-luc cells, AC50 (uM) modified / 1000", "note": "Structures can show the parent of a compound that is named as a salt.", "data": [{"smiles": "COc1ccc(C2CNC(=O)C2)cc1OC1CCCC1", "note": "(stereo not shown) [Rolipram]", "values": [{"measurement": "CC50 at 24 h", "value": "> 20", "unit": "µM"}]}, {"smiles": "CN(C)[C@@H]1C(=O)C(C(=O)NCN2CCCC2)=C(O)[C@@]2(O)C(=O)C3=C(O)c4c(O)cccc4[C@@](C)(O)C3C[C@@H]12", "note": "(stereo partly shown) [Rolitetracycline hydrochloride]", "values": [{"measurement": "CC50 at 24 h", "value": "> 50", "unit": "µM"}]}, {"smiles": "CN(C)[C@@H]1C(O)=C(C(=O)NCN2CCCC2)C(=O)[C@@]2(O)C(O)=C3C(=O)c4c(O)cccc4[C@@](C)(O)[C@H]3C[C@@H]12", "note": "[Rolitetracycline]", "values": [{"measurement": "CC50 at 24 h", "value": "> 20", "unit": "µM"}]}, {"smiles": "Cc1nc(-c2ccc(Cl)cc2)oc1COC(C)(C)C(=O)O", "note": "[Romazarit]", "values": [{"measurement": "CC50 at 24 h", "value": "> 50", "unit": "µM"}]}, {"smiles": "C/C=C1\\NC(=O)[C@H]2CSSCC/C=C/[C@H](CC(=O)N[C@H](C(C)C)C(=O)N2)OC(=O)[C@H](C(C)C)NC1=O", "note": "[Romidepsin]", "values": [{"measurement": "CC50 at 24 h", "value": 0.0269, "unit": "µM"}]}, {"smiles": "Cn1c([N+](=O)[O-])cnc1COC(N)=O", "note": "[Ronidazole]", "values": [{"measurement": "CC50 at 24 h", "value": "> 50", "unit": "µM"}]}, {"smiles": "CCCN(CCC)CCc1cccc2c1CC(=O)N2", "note": "[Ropinirole]", "values": [{"measurement": "CC50 at 24 h", "value": "> 50", "unit": "µM"}]}, {"smiles": "CCCN1CCCC[C@H]1C(=O)Nc1c(C)cccc1C", "note": "[Ropivacaine hydrochloride]", "values": [{"measurement": "CC50 at 24 h", "value": "> 50", "unit": "µM"}]}, {"smiles": "CN(C(=O)c1c(O)c2ccccc2n(C)c1=O)c1ccccc1", "note": "[Roquinimex]", "values": [{"measurement": "CC50 at 24 h", "value": "> 50", "unit": "µM"}]}, {"smiles": "O=C(O)c1c(Cl)c(Cl)c(Cl)c(Cl)c1-c1c2cc(I)c(=O)c(I)c-2oc2c(I)c(O)c(I)cc12", "note": "[Rose bengal sodium]", "values": [{"measurement": "CC50 at 24 h", "value": 20.9, "unit": "µM"}]}, {"smiles": "CN(CCOc1ccc(CC2SC(=O)NC2=O)cc1)c1ccccn1", "note": "(stereo not shown) [Rosiglitazone maleate]", "values": [{"measurement": "CC50 at 24 h", "value": "> 90", "unit": "µM"}]}, {"smiles": "CC(C)c1nc(N(C)S(C)(=O)=O)nc(-c2ccc(F)cc2)c1/C=C/[C@@H](O)C[C@@H](O)CC(=O)O", "note": "[Rosuvastatin calcium]", "values": [{"measurement": "CC50 at 24 h", "value": "> 50", "unit": "µM"}]}, {"smiles": "CCCN(CCc1cccs1)[C@H]1CCc2c(O)cccc2C1", "note": "[Rotigotine]", "values": [{"measurement": "CC50 at 24 h", "value": 40.9, "unit": "µM"}]}, {"smiles": "CC(=O)OCC(=O)NCCCOc1cccc(CN2CCCCC2)c1", "note": "[Roxatidine acetate hydrochloride]", "values": [{"measurement": "CC50 at 24 h", "value": "> 50", "unit": "µM"}]}, {"smiles": "Oc1ccc2[nH]cc(CCCCN3CC=C(c4ccccc4)CC3)c2c1", "note": "[Roxindole]", "values": [{"measurement": "CC50 at 24 h", "value": 7.71, "unit": "µM"}]}, {"smiles": "CC[C@@]1(O)C(=O)OCc2c1cc1n(c2=O)Cc2cc3c([N+](=O)[O-])cccc3nc2-1", "note": "[Rubitecan]", "values": [{"measurement": "CC50 at 24 h", "value": 1.34, "unit": "µM"}]}, {"smiles": "NC(=O)c1cn(Cc2c(F)cccc2F)nn1", "note": "[Rufinamide]", "values": [{"measurement": "CC50 at 24 h", "value": "> 50", "unit": "µM"}]}, {"smiles": "CN1CCN(c2c(F)cc3c(=O)c(C(=O)O)cn4c3c2SCC4)CC1", "note": "[Rufloxacin hydrochloride]", "values": [{"measurement": "CC50 at 24 h", "value": "> 50", "unit": "µM"}]}, {"smiles": "C[C@@H]1O[C@@H](OC[C@H]2O[C@@H](Oc3c(-c4ccc(O)c(O)c4)oc4cc(O)cc(O)c4c3=O)[C@H](O)[C@@H](O)[C@@H]2O)[C@H](O)[C@H](O)[C@H]1O", "note": "[Rutin]", "values": [{"measurement": "CC50 at 24 h", "value": 57.3, "unit": "µM"}]}, {"smiles": "COc1cc(C[C@H](C)N)c(OC)cc1Br", "note": "[S-(+)-2,5-Dimethoxy-4-bromoamphetamine hydrochloride]", "values": [{"measurement": "CC50 at 24 h", "value": 61.8, "unit": "µM"}]}, {"smiles": "CN[C@@H](C)Cc1ccccc1", "note": "[S-(+)-Methamphetamine hydrochloride]", "values": [{"measurement": "CC50 at 24 h", "value": "> 90", "unit": "µM"}]}, {"smiles": "C=CCC1([C@@H](C)CCC)C(=O)NC(=O)NC1=O", "note": "[S-(-)-Secobarbital]", "values": [{"measurement": "CC50 at 24 h", "value": "> 90", "unit": "µM"}]}, {"smiles": "CCCSC(=O)Cl", "note": "[S-(Propyl) chlorothioformate]", "values": [{"measurement": "CC50 at 24 h", "value": "> 90", "unit": "µM"}]}, {"smiles": "C=CCC1=C(C)[C@@H](OC(=O)[C@@H]2[C@@H](C=C(C)C)C2(C)C)CC1=O", "note": "[S-Bioallethrin]", "values": [{"measurement": "CC50 at 24 h", "value": 32.6, "unit": "µM"}]}, {"smiles": "CC(=O)SCc1ccco1", "note": "[S-Furfuryl thioacetate]", "values": [{"measurement": "CC50 at 24 h", "value": "> 90", "unit": "µM"}]}, {"smiles": "COC(C)(C)CCC[C@H](C)C/C=C/C(C)=C/C(=O)OC(C)C", "note": "[S-Methoprene]", "values": [{"measurement": "CC50 at 24 h", "value": 70.9, "unit": "µM"}]}, {"smiles": "CCc1cccc(C)c1N(C(=O)CCl)[C@@H](C)COC", "note": "[S-Metolachlor]", "values": [{"measurement": "CC50 at 24 h", "value": "> 90", "unit": "µM"}]}, {"smiles": "Cc1nc(-c2ccccn2)ncc1C(=O)Nn1cc(C)c2cc(F)ccc21", "note": "[SAR102608]", "values": [{"measurement": "CC50 at 24 h", "value": "> 90", "unit": "µM"}]}, {"smiles": "CC(=O)NC1(c2cccc(F)c2)CCN(CC[C@@]2(c3ccc(Cl)c(Cl)c3)CN(c3ccccc3)C(=O)CO2)CC1", "note": "[SAR102779]", "values": [{"measurement": "CC50 at 24 h", "value": 6.31, "unit": "µM"}]}, {"smiles": "O=C(Nc1ccc2[nH]ccc2c1)c1cc2cc(F)ccc2n1Cc1cccc(F)c1", "note": "[SAR115740]", "values": [{"measurement": "CC50 at 24 h", "value": 14.6, "unit": "µM"}]}, {"smiles": "COCCOc1cc2cc(C(=O)NC3CCN(C(C)C)CC3)n(CC(=O)Nc3ccc(Cl)cn3)c2cn1", "note": "[SAR377142]", "values": [{"measurement": "CC50 at 24 h", "value": 71.7, "unit": "µM"}]}]}
